Measurements taken from patent US20260035382A1, “COMPOUNDS AS SUMO ACTIVATING ENZYME INHIBITORS” (WIGEN BIOMEDICINE TECHNOLOGY (SHANGHAI) CO., LTD., priority 2022, published 2026).
Where two headings read alike, the source gives them in different places.

Molecular target: SAE (Homo sapiens (Human), UniProt Q9UBT2)
Assay: In vitro inhibitory activity assay against SAE (SUMO-2/3 immunofluorescence in HCT116 cells)
Type: cell-based
Conditions: 6 h incubation, read-out: SUMO IF IC50
Experimental: HCT116 cells were seeded into a 96-well black transparent bottom plate at about 20000/well with 90 μL per well. The cells were incubated at 37° C. overnight for 24 h. The test compounds were 10-fold diluted to give a final concentration, and 10 μL of the diluted compounds was added to each well of the cell culture plate. The mixture was incubated at 37° C. for 6 h. The cells were then washed gently, the culture medium was discarded, and the cells were washed once with 200 μL of 0.1% o PBST. 50 μL of 4% PFA was added to each well, and the cells were immobilized at room temperature for 20 min, and then washed with PBS 2-3 times. 50 μL of 0.2% o Triton X-100 was added to each well, and the cells were left to stand at room temperature for 15 min and washed with 0.1% PBST 3 times. 100 uL of 3% BSA (0.6 g BSA+20 mL PBS) was added to each well, and the mixture was blocked at 37° C. for 30 min. After the blocking was completed, the liquid was removed and a primary antibody (SUMO-2/3 (181H8) Rabbit mAb, 1:400 dilution) was prepared with […]. 30 μL of the diluted primary antibody was added to each well, and the mixture was incubated at 4° C. overnight. The cells were washed 3 times with 200 μL of 0.1% o PBST. A FITC secondary antibody (Fluorescein (FITC)-conjugated Affinipure Goat Anti-Rabbit IgG (H+L), 1:300 dilution) was further prepared with 1% o BSA, and 40 μL of the diluted secondary antibody was added to each well. The mixture was incubated at room temperature in the dark for 2 h, and then the cells were washed 4 times with 0.1% PBST. The fluorescence signal of the sample was detected and compared to the DMSO group, and the inhibition rate and IC50 were calculated.

Sequence of SAE (Q9UBT2 whole entry): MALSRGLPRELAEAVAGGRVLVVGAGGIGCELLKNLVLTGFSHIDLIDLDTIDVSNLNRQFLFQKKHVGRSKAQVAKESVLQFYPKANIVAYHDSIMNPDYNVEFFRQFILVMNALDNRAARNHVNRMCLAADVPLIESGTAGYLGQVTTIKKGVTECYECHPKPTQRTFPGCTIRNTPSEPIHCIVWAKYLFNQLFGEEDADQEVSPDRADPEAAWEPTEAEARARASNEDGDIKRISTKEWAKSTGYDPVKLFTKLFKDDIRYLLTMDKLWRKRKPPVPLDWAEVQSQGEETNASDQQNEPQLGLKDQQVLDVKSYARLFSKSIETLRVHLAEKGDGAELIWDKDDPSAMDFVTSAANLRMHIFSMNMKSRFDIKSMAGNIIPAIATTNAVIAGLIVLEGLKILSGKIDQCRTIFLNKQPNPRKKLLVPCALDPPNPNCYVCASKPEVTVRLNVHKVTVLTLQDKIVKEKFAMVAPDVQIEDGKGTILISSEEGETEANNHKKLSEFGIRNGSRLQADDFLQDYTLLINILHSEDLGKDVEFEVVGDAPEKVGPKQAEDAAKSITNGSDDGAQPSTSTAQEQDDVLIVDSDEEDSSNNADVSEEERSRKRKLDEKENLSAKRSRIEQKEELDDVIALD
Sequence of SAE (Q9UBE0 whole entry partner): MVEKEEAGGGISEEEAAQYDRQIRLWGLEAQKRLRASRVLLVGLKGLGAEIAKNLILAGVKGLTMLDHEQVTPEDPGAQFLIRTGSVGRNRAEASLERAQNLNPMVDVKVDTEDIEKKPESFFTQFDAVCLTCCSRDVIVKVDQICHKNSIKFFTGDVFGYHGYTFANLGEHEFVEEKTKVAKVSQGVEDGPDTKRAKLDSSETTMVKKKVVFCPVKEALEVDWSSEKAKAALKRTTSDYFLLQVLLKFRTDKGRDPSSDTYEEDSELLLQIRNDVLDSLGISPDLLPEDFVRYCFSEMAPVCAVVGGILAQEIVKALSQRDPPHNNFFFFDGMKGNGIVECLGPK

| Compound | IC50 (class symbols) | IC50 (numeric values) |
| --- | --- | --- |
| NS(=O)(=O)OC[C@H]1C[C@@H](Nc2ncncc2C(=O)c2cc3c(s2)CSCC32NCCc3ccccc32)C[C@@H]1O (stereo partly drawn) [Compound 85] | > 200 nM |  |
| NS(=O)(=O)OC[C@H]1C[C@@H](Nc2ncncc2C(=O)c2cc3c(s2)CCC32NCCc3cc(Cl)ncc32)C[C@@H]1O (stereo partly drawn) [Compound 77] | 50 to 200 nM |  |
| N#Cc1ccc2c(c1)[C@]1(CCCc3sc(C(=O)c4cncnc4N[C@@H]4C[C@H](COS(N)(=O)=O)[C@@H](O)C4)cc31)OCC2 [Compound 251] | > 200 nM |  |
| NS(=O)(=O)OC[C@H]1C[C@@H](Nc2ncncc2C(=O)c2cc3c(s2)CSC[C@@]32NCCc3cnc(Cl)cc32)C[C@@H]1O [Compound 143] | > 200 nM |  |
| NS(=O)(=O)OC[C@H]1C[C@@H](Nc2ncncc2C(=O)c2cc3c(s2)C=C[C@@]32NCCc3ccc(F)cc32)C[C@@H]1O [Compound 177] | > 200 nM |  |
| NS(=O)(=O)OC[C@H]1C[C@@H](Nc2ncncc2C(=O)c2cc3c(s2)CN(C2CC2)C[C@]32OCCc3ccc(Cl)cc32)C[C@@H]1O [Compound 279] | ≤ 50 nM |  |
| NS(=O)(=O)OC[C@H]1C[C@@H](Nc2ncncc2C(=O)c2cc3c(s2)CN(C2CC2)C[C@@]32NCCc3ccc(Cl)cc32)C[C@@H]1O [Compound 116] |  | > 1000 nM |
| NS(=O)(=O)OC[C@H]1C[C@@H](Nc2ncncc2C(=O)c2cc3c(s2)CCC32NCCc3cc(F)c(Cl)c(F)c32)C[C@@H]1O (stereo partly drawn) [Compound 74] | 50 to 200 nM |  |
| CC(C)N1Cc2sc(C(=O)c3cncnc3N[C@@H]3C[C@H](COS(N)(=O)=O)[C@@H](O)C3)cc2C2(C1)OCCc1ccc(F)cc12 (stereo partly drawn) [Compound 268] | 50 to 200 nM |  |
| [2H]C1([2H])CNC2(CCCc3sc(C(=O)c4cncnc4N[C@@H]4C[C@H](COS(N)(=O)=O)[C@@H](O)C4)cc32)c2cc(Cl)ccc21 (stereo partly drawn) [Compound 199] | ≤ 50 nM |  |
| [2H]C1([2H])CN[C@]2(CCCc3sc(C(=O)c4cncnc4N[C@@H]4C[C@H](COS(N)(=O)=O)[C@@H](O)C4)cc32)c2cc(Cl)ccc21 [Compound 201] |  | 26.5 nM |
| NS(=O)(=O)OC[C@H]1C[C@@H](Nc2ncncc2C(=O)c2cc3c(s2)C(F)=C[C@]32NCCc3ccc(Cl)cc32)C[C@@H]1O [Compound 156] | ≤ 50 nM |  |
| N#Cc1ccc2c(c1)[C@@]1(CCCc3sc(C(=O)c4cncnc4N[C@@H]4C[C@H](COS(N)(=O)=O)[C@@H](O)C4)cc31)NCC2 [Compound 12] | ≤ 50 nM |  |
| CN1Cc2sc(C(=O)c3cncnc3N[C@@H]3C[C@H](COS(N)(=O)=O)[C@@H](O)C3)cc2[C@@]2(C1)OCCc1ccccc12 [Compound 254] | > 200 nM |  |
| NS(=O)(=O)OC[C@H]1C[C@@H](Nc2ncncc2C(=O)c2cc3c(s2)CC[C@@]32OCCc3ccccc32)C[C@@H]1O [Compound 281] | > 200 nM |  |
| NS(=O)(=O)OC[C@H]1C[C@@H](Nc2ncncc2C(=O)c2cc3c(s2)CCCC32NC(=O)Cc3ccc(Cl)cc32)C[C@@H]1O (stereo partly drawn) [Compound 163] | > 200 nM |  |
| NS(=O)(=O)OC[C@H]1C[C@@H](Nc2ncncc2C(=O)c2cc3c(s2)C(F)(F)CC32NCCc3ccc(Cl)cc32)C[C@@H]1O (stereo partly drawn) [Compound 160] | 50 to 200 nM |  |
| NS(=O)(=O)OC[C@H]1C[C@@H](Nc2ncncc2C(=O)c2cc3c(s2)CC[C@]32NCCc3cc(F)c(F)cc32)C[C@@H]1O [Compound 227] | ≤ 50 nM |  |
| NS(=O)(=O)OC[C@H]1C[C@@H](Nc2ncncc2C(=O)c2cc3c(s2)COC[C@@]32NCCc3c(Cl)cc(Cl)cc32)C[C@@H]1O [Compound 101] | > 200 nM |  |
| NS(=O)(=O)OC[C@H]1C[C@@H](Nc2ncncc2C(=O)c2cc3c(s2)COC[C@]32NCCc3cc(F)c(Cl)cc32)C[C@@H]1O [Compound 108] | 50 to 200 nM |  |
| NS(=O)(=O)OC[C@H]1C[C@@H](Nc2ncncc2C(=O)c2cc3c(s2)CCCC32NCCc3cc(F)c(F)cc32)C[C@@H]1O (stereo partly drawn) [Compound 26] | 50 to 200 nM |  |
| NS(=O)(=O)OC[C@H]1C[C@@H](Nc2ncncc2C(=O)c2cc3c(s2)CSC[C@]32NCCc3ccc(Cl)cc32)C[C@@H]1O [Compound 93] |  | 28.9 nM |
| NS(=O)(=O)OC[C@H]1C[C@@H](Nc2ncncc2C(=O)c2cc3c(s2)CO[C@]32NCCc3ccc(Cl)cc32)C[C@@H]1O [Compound 239] | 50 to 200 nM |  |
| N#Cc1ccc2c(c1)[C@@]1(CCCc3sc(C(=O)c4cncnc4N[C@@H]4C[C@H](COS(N)(=O)=O)[C@@H](O)C4)cc31)OCC2 [Compound 252] | ≤ 50 nM |  |
| NS(=O)(=O)OC[C@H]1C[C@@H](Nc2ncncc2C(=O)c2cc3c(s2)CN(C2CC2)CC32NCCc3ccc(Cl)cc32)C[C@@H]1O (stereo partly drawn) [Compound 115] | ≤ 50 nM |  |
| CCN1Cc2sc(C(=O)c3cncnc3N[C@@H]3C[C@H](COS(N)(=O)=O)[C@@H](O)C3)cc2[C@]2(C1)NCCc1ccc(Cl)cc12 [Compound 183] |  | 18.7 nM |

| Compound | IC50 (class symbols) | IC50 (numeric values) |
| --- | --- | --- |
| NS(=O)(=O)OC[C@H]1C[C@@H](Nc2ncncc2C(=O)c2cc3c(s2)CNC[C@@]32NCCc3ccc(Cl)cc32)C[C@@H]1O [Compound 119] | > 200 nM |  |
| NS(=O)(=O)OC[C@H]1C[C@@H](Nc2ncncc2C(=O)c2cc3c(s2)CCC32NCCc3ccc(Cl)cc32)C[C@@H]1O (stereo partly drawn) [Compound 46] | 50 to 200 nM |  |
| NS(=O)(=O)OC[C@H]1C[C@@H](Nc2ncncc2C(=O)c2nc3c(s2)CSC[C@@]32NCCc3ccc(Cl)cc32)C[C@@H]1O [Compound 128] | > 200 nM |  |
| NS(=O)(=O)OC[C@H]1C[C@@H](Nc2ncncc2C(=O)c2cc3c(s2)CCC32NCCc3ccccc32)C[C@@H]1O (stereo partly drawn) [Compound 43] | > 200 nM |  |
| NS(=O)(=O)OC[C@H]1C[C@@H](Nc2ncncc2C(=O)c2cc3c(s2)COC[C@]32NCCc3c(Cl)cc(Cl)cc32)C[C@@H]1O [Compound 102] | 50 to 200 nM |  |
| NS(=O)(=O)OC[C@H]1C[C@@H](Nc2ncncc2C(=O)c2cc3c(s2)CCC32OCCc3ccc(F)cc32)C[C@@H]1O (stereo partly drawn) [Compound 283] | 50 to 200 nM |  |
| NS(=O)(=O)OC[C@H]1C[C@@H](Nc2ncncc2C(=O)c2cc3c(s2)CSC[C@@]32NCCc3ncc(Cl)cc32)C[C@@H]1O [Compound 149] | > 200 nM |  |
| CCN1Cc2sc(C(=O)c3cncnc3N[C@@H]3C[C@H](COS(N)(=O)=O)[C@@H](O)C3)cc2[C@@]2(C1)OCCc1ccc(Cl)cc12 [Compound 266] | > 200 nM |  |
| NS(=O)(=O)OC[C@H]1C[C@@H](Nc2ncncc2C(=O)c2cc3c(s2)CCCC32NCCc3cc(Cl)c(F)cc32)C[C@@H]1O (stereo partly drawn) [Compound 33] | 50 to 200 nM |  |
| NS(=O)(=O)OC[C@H]1C[C@@H](Nc2ncncc2C(=O)c2cc3c(s2)CC[C@]32NCCc3ccccc32)C[C@@H]1O [Compound 45] |  | 125 nM |
| NS(=O)(=O)OC[C@H]1C[C@@H](Nc2ncncc2C(=O)c2cc3c(s2)COCC32NCCc3c(F)cc(Cl)cc32)C[C@@H]1O (stereo partly drawn) [Compound 109] | 50 to 200 nM |  |
| NS(=O)(=O)OC[C@H]1C[C@@H](Nc2ncncc2C(=O)c2cc3c(s2)C=C[C@@]32OCCc3ccc(F)cc32)C[C@@H]1O [Compound 293] | > 200 nM |  |
| NS(=O)(=O)OC[C@H]1C[C@@H](Nc2ncncc2C(=O)c2nc3c(s2)CCC[C@]32NCCc3ccc(Cl)cc32)C[C@@H]1O [Compound 123] | 50 to 200 nM |  |
| NS(=O)(=O)OC[C@H]1C[C@@H](Nc2ncncc2C(=O)c2cc3c(s2)C=C[C@]32OCCc3ccccc32)C[C@@H]1O [Compound 291] | 50 to 200 nM |  |
| NS(=O)(=O)OC[C@H]1C[C@@H](Nc2ncncc2C(=O)c2cc3c(s2)CCC32NCCc3ccc(C4CC4)cc32)C[C@@H]1O (stereo partly drawn) [Compound 65] | 50 to 200 nM |  |
| CCN1Cc2sc(C(=O)c3cncnc3N[C@@H]3C[C@H](COS(N)(=O)=O)[C@@H](O)C3)cc2C2(C1)OCCc1ccc(Cl)cc12 (stereo partly drawn) [Compound 265] | ≤ 50 nM |  |
| NS(=O)(=O)OC[C@H]1C[C@@H](Nc2ncncc2C(=O)c2cc3c(s2)CC[C@@]32OCCc3ccc(F)cc32)C[C@@H]1O [Compound 284] | > 200 nM |  |
| N#Cc1cc2c(cc1Cl)C1(CCc3sc(C(=O)c4cncnc4N[C@@H]4C[C@H](COS(N)(=O)=O)[C@@H](O)C4)cc31)NCC2 (stereo partly drawn) [Compound 72] | 50 to 200 nM |  |
| C#Cc1ccc2c(c1)[C@@]1(CCCc3sc(C(=O)c4cncnc4N[C@@H]4C[C@H](COS(N)(=O)=O)[C@@H](O)C4)cc31)NCC2 [Compound 204] | 50 to 200 nM |  |
| NS(=O)(=O)OC[C@H]1C[C@@H](Nc2ncncc2C(=O)c2cc3c(s2)CC[C@@]32NCCc3ccccc32)C[C@@H]1O [Compound 44] |  | > 1000 nM |
| CN1CCc2ccc(Cl)cc2[C@@]12CCCc1sc(C(=O)c3cncnc3N[C@@H]3C[C@H](COS(N)(=O)=O)[C@@H](O)C3)cc12 [Compound 132] | 50 to 200 nM |  |
| CCN1Cc2sc(C(=O)c3cncnc3N[C@@H]3C[C@H](COS(N)(=O)=O)[C@@H](O)C3)cc2[C@@]2(C1)NCCc1ccc(Cl)cc12 [Compound 182] |  | > 1000 nM |
| NS(=O)(=O)OC[C@H]1C[C@@H](Nc2ncncc2C(=O)c2cc3c(s2)CCC32NCC(=O)c3ccc(Cl)cc32)C[C@@H]1O (stereo partly drawn) [Compound 83] | 50 to 200 nM |  |
| NS(=O)(=O)OC[C@H]1C[C@@H](Nc2ncncc2C(=O)c2cc3c(s2)CCCC32NCCc3ccc(C4CC4)cc32)C[C@@H]1O (stereo partly drawn) [Compound 23] | 50 to 200 nM |  |
| NS(=O)(=O)OC[C@H]1C[C@@H](Nc2ncncc2C(=O)c2cc3c(s2)COC[C@@]32NCCc3cc(F)c(Cl)cc32)C[C@@H]1O [Compound 107] | > 200 nM |  |
